Results taken from US5840692A, “Peptide fragments and analogs of thrombospondin” (Allegheny University of the Health Sciences, priority 1995, dated 1998).
“And” between values parts separate entries of the source, which are not always exact repeats. Equal entries are not always repeated. Residues, ends and D or L forms follow the SMILES beside them.

Key:
[1] = test system: platelets in platelet-rich-plasma (PRP); assay: Platelet aggregation assay in platelet-rich plasma, ADP-initiated; type: cell-based; details: 0.5 ml PRP, aggregation initiated with 1 μM ADP
Method: Platelet aggregation was monitored on a single-channel aggregometer equipped to measure luminescence (Chromo-Log, Havertown, Pa.). Platelet-rich-plasma (PRP) was obtained from whole blood anti-coagulated with 0.38% Sodium Citrate by centrifugation at 150×g for 20 minutes. Peptides were added to 0.5 ml of PRP and aggregation initiated with 1 μM ADP. Buffer blanks contained diluent (water) but no peptide.

platelets = assay: Direct platelet adhesion assay; type: cell-based; details: for adherence to platelets (in words): at this concentration (40 μg/ml coating solution); for Adherence as % Control: wells treated with 50 μl of 40 μg/ml peptide or protein, platelets incubated 30 minutes, BCA protein assay
Method: (§1) The number of adherent platelets was essentially determined as previously described (Tuszynski et al., Anal. Bio. supra). Briefly, 100 μl of 5×10^8 platelets/ml washed as previously described (Tuszynski, et al., Blood 72, 109-225, 1988) were added to microtiter plates, the wells of which were treated with 50 μl of a 40 μg/ml peptide or protein solution (Hepes buffered saline, pH 7.4). Solutions were dried at room temperature after incubation in a fume hood for two hours. Wells were blocked for one hour with 1% BSA. Platelets (100 μl) were incubated in the wells for 30 minutes and non-adherent platelets were removed by aspiration. Wells were washed 3× with 200 μl of Hepes buffered saline, pH 7.4. The number of adherent platelets was determined by measuring the platelet-derived protein using the BCA protein assay.

[2] = test system: B16 F10 mouse melanoma cells; assay: Antimetastatic activity in vivo, lung tumors after i.v. melanoma cells; parameters: species or system C57 black mice; details: for % buffer control (number of lung tumors): i.v. with 5×10^5 B16 F10 cells, lung tumors counted after 16 days; for number of tumors versus controls (in words) / size of lung tumors (in words): treated C57 black mice, 16 days
Source text: Briefly, C57 black mice were intravenously injected with 5×10^5 B16 F10 mouse melanoma cells in the presence of either control buffer (Hepes buffered saline, pH 7.4), or the indicated amount of peptide compound of the invention p1, p5 or p6. After 16 days, the mice were sacrificed and the number of lung tumors counted.

[3] = test system: platelets (adhesion to absorbed fibronectin (FN)); assay: Competitive assay, platelet adhesion to absorbed fibronectin (FN); type: cell-based; details: for % Buffer Control (platelet adhesion): absorbed protein FN, platelets preincubated with 250 μg/ml compound
Method: as §1
(§2) The direct adhesion assay of Example 7 was modified to measure the ability of the peptide compounds of the invention to compete with intact thrombospindin or fibronectin for adhesion of platelets.
(§3) In this assay, thrombospondin (TSP) or fibronectin (FN) was absorbed onto microtiter dish as described in Example 7. The assay was similar to Example 7 except that before platelets were added to the microtiter dishes they were preincubated with 250 μg/ml of various ligands.

[4] = test system: melanoma cells (adhesion to absorbed intact thrombospondin); assay: Competitive assay to measure thrombospondin specific adhesion to melanoma cells; type: cell-based, mouse; details: for competition with thrombospondin for adhesion to melanoma cells (in words): at this concentration (100 μg/ml)
Method: (§4) It is believed that thrombospondin acts in metastasis through its adhesive properties. An assay was developed, generally in accordance with the disclosure of Tuszynski et al. (Anal. Bio. (1990) 184:189-91) which evaluates the ability of melanoma cells to adhere to the thrombospondin fragments or analogs of the invention. In this assay, wells of a 96-well microtiter dish (Costar, Cambridge, Mass.) were incubated for two to three hours with 50 μl of a 40 μg/ml solution of various ligands in 20 mM NaCl, pH 7.3. Thrombospondin (purified by the method of Tuszynski et al., J. Biol. Chem. (1985) 260:12240-5), fibronectin (Sigma Chemical Co., Missouri) served as the positive control. Bovine serum albumin (BSA) (Sigma Chemical Co.) served as the negative control. Thrombospondin analogs of the invention p1, p5 and p6 were synthesized as described in Examples 1 through 3. Following peptide adhesion to the microtiter dish, the wells were aspirated, treated with 200 μl phosphate buffered saline (PBS) containing 1% BSA for 1 hour and then washed three more times with 200 μl PBS.
(§5) Mouse B16 F10 melanoma cells were grown and harvested during log phase of growth using standard procedures. The harvested cells were washed two times in serum-free Dulbecco's minimum essential medium (DMEM) (Flow Laboratories) and suspended in DMEM at a final concentration of 4×10^5 cells/ml. Of the cell suspension 100 μl was added to each well of the microtiter dish containing the various ligands and the dish incubated at 37° C. in a CO2 incubator for 1 hour. Nonadherent cells were removed by aspiration and the wells washed three times with 200 μl of PBS. The total cell-associated protein was determined by dissolving the attached cells directly in the microtiter wells with 200 μl of the Pierce BCA working solution (Pierce Chem. Co. Booklet No. 23225 (1987)). The plate was covered with an adhesive mylar sheet (Flow Labs) and incubated at 60° C. for 30 minutes. Plates were allowed to cool to room temperature, cover sheets were removed, and the absorbance of each well was determined at 562 nm with a microtiter plate reader (Biotek, Burlington, Vt.)
The direct adhesion assay of Example 5 was modified to measure the ability of the peptide compounds of the invention to compete with intact thrombospondin for adhesion to melanoma cells.
In this assay, intact thrombospondin is absorbed onto microtiter dishes as described in Example 5. […]

[5] = test system: Mouse B16 F10 melanoma cells; assay: Direct adhesion assay: melanoma cells adhering to ligand-coated wells; type: cell-based; details: for Adhesion as % Thrombospondin: absorbed compound 2 μg per well, B16 F10 melanoma cells, 1 hour at 37° C., cell protein by BCA, absorbance 562 nm; for adhesive properties (in words): melanoma cell adhesion to coated peptide
Method: as §4, §5

[6] = test system: platelets (adhesion to absorbed thrombospondin (TSP)); assay: Competitive assay, platelet adhesion to absorbed thrombospondin (TSP); type: cell-based; details: for % Buffer Control (platelet adhesion): absorbed protein TSP, platelets preincubated with 250 μg/ml compound
Method: as §1, §2, §3

[7] = cells preincubated with 10 μg/ml compound
[8] = cells preincubated with 50 μg/ml compound
[9] = cells preincubated 15 minutes with 100 μg/ml compound
[10] = cells preincubated with 200 μg/ml compound
[11] = cells preincubated with 300 μg/ml compound

Compound | inhibition of platelet aggregation (in words, FIG. 1) [1] | adherence to platelets (in words) (platelets) | % buffer control (number of lung tumors) ([2]; 30 μg/mouse) [%] | number of tumors versus controls (in words) [2] | size of lung tumors (in words) [2] | competition with fibronectin for platelet adhesion (in words) ([3]; 250 μg/ml) | % Buffer Control (platelet adhesion) [3] [%] | competition with thrombospondin for adhesion to melanoma cells (in words) [4] | % of buffer control (melanoma cell adhesion to thrombospondin) [4, 7] [%] | % of buffer control (melanoma cell adhesion to thrombospondin) [4, 8] [%] | Adhesion as % Thrombospondin [5] [%] | adhesive properties (in words) [5] | competition with thrombospondin for platelet adhesion (in words) ([6]; 250 μg/ml) | % Buffer Control (platelet adhesion) [6] [%] | Adherence as % Control (platelets) [%] | % buffer control (number of lung tumors) ([2]; 100 μg/mouse) [%] | % buffer control (number of lung tumors) ([2]; 300 μg/mouse) [%] | % of buffer control (melanoma cell adhesion to thrombospondin) [4, 9] | % of buffer control (melanoma cell adhesion to thrombospondin) [4, 10] [%] | % of buffer control (melanoma cell adhesion to thrombospondin) [4, 11] [%]
CC(C)[C@H](NC(=O)[C@H](CO)NC(=O)[C@H](CS)NC(=O)[C@@H]1CCCN1C(=O)[C@H](CO)NC(=O)[C@@H](N)Cc1c[nH]c2ccccc12)C(=O)N[C@H](C(=O)N[C@@H](CS)C(=O)NCC(=O)O)[C@@H](C)O [Compound p1, WSPCSVTCG] (H-WSPCSVTCG-OH) | inhibit platelet aggregation | adhere to platelets | 49 | statistically fewer tumors than controls | smaller in size | did not compete with fibronectin | 108 | able to effectively compete with thrombospondin | 49 | 40 | 98 | display adhesive properties | effectively competed with thrombospondin | 71 | – | – | – | – | – | –
Thrombospondin: large molecular weight 180 kD glycoprotein of three identical disulfide-linked polypeptide chains; purified intact protein, positive control | – | – | – | – | – | – | – | – | – | – | 100 | – | – | – | 100 | – | – | – | – | –
WSPCSVTCGNH2 [Compound p6] | inhibit platelet aggregation | adhere to platelets | 91 | statistically fewer tumors than controls | smaller in size | – | 96 | compete to a lesser degree | – | – | 70 | display adhesive properties | – | 98 | 38 | 102 | 50 | 89% | 74 | 74
fWSPCSVTCGNH2 [Compound p5] | inhibit platelet aggregation | – | 87 | statistically fewer tumors than controls | – | – | 109 | compete to a lesser degree | 99 | 104 | 79 | display adhesive properties | – | 107 | 2.1 | – | – | 62% and 108% and 83% | 89 | 83
fibronectin | – | – | – | – | – | – | – | – | – | – | – | – | – | – | 83 | – | – | – | – | –
